Data taken from patent publication US6441134B1, “Isolated Candida albicans oligopeptide transporter gene” (The University of Tennessee Research Corporation, dated 2002).
Starred links: 1 amine or outer side, 2 acyl side, 3 side chain; linkers in the order of their positions; H or OH if unused. Non-standard residues stand in square brackets, D forms with d. Residues, ends and D or L forms follow the SMILES beside them. No end group written: not given here. Eth = ethionine, CCSCC[C@H](N[*:1])C(=O)[*:2]; Ethionine = CCSCC[C@H](N[*:1])C(=O)[*:2]; hCys = N[C@@H](CCS)C(=O)O

T1: Candida albicans oligopeptide transporter Opt1p (protein product of OPT1) (Candida albicans)
T1 chain: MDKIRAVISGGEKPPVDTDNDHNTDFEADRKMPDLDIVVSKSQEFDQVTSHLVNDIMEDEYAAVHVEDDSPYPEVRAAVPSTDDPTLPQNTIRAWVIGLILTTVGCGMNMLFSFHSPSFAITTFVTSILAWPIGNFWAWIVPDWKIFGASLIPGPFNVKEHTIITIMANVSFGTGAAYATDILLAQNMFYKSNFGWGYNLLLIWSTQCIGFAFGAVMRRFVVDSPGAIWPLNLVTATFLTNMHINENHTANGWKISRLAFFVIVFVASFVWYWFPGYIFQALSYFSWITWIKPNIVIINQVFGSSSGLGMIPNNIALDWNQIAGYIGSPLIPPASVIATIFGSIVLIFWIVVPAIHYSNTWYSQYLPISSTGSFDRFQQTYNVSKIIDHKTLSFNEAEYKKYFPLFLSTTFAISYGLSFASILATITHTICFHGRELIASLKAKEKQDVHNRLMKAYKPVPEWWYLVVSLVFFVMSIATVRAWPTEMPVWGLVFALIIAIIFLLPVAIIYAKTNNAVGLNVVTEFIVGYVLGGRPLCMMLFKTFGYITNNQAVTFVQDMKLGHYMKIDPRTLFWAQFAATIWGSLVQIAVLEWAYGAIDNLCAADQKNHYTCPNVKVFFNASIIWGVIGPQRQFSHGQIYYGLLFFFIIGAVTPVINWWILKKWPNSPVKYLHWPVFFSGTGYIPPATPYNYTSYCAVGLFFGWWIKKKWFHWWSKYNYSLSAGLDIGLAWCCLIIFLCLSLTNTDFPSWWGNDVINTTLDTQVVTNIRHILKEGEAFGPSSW


Key:
[1] = system: S. cerevisiae PB1X-9B(pRS202); assay: Disk sensitivity assay to ethionine-containing peptides, PB1X-9B(pRS202); format: cell-based, Saccharomyces cerevisiae; settings: for zone of growth inhibition / sensitivity: 0.1% proline as nitrogen source, 0.38 μmoles per 6 mm disk; for zone of growth inhibition: medium containing ammonium sulfate
Protocol: (§1) S. cerevisiae PB1X-9B is sensitive to the toxic amino acid ethionine Eth) but is resistant to ethionine containing di-, tri-, tetra-, and pentapeptides. Disk sensitivity assays was utilized to determine if cells transformed with pOPT1 were sensitive to toxic peptides and whether this sensitivity was dependent upon nitrogen source.
(§2) Sensitivity to ethionine, a toxic methionine analog, and ethionine-containing peptides was determined by the method described by Island et al. (1987). Cells were grown overnight to exponential phase of growth in SC, washed, and resuspended at 5×10^6 cells /ml in sterile water. One ml of this cell suspension was added to 3 ml molten Noble agar (0.8% final concentration) and overlayed on 20 ml of the same medium used to prepare the inoculum. A disk (6 mm diameter, Difco) was placed on the plate and 0.38 μmoles of the compounds to be tested were applied to the disks. Zones of inhibition were measured after 24-48 hr incubation at 30 iC. Each test comprised at least three independent assays and the results represented in the Tables are means of the values obtained. Maximum variation between the zones of inhibition measured for each test were ^23 mm. A value of 7 mm for the diameter of zone of inhibition represents a minimal growth inhibition value as the disk diameter was 6 mm. Photodocumentation of sensitivity assays was done with a Umax Scanner and processed through Adobe Photoshop.

[2] = system: S. cerevisiae PB1X-9B(pOPT1); format: cell-based, Saccharomyces cerevisiae; settings: 0.38 μmoles per 6 mm disk; for zone of growth inhibition / sensitivity: 0.1% proline as nitrogen source; for zone of growth inhibition: ammonium sulfate as nitrogen source, 24-48 hr
Protocol: as §1, §2

[3] = system: oligopeptide transporter (OPT1) expressed in S. cerevisiae PB1X-9B; assay: Peptide transport competition experiment, KLG-[3H]L uptake by PB1X-9B(pOPT1); format: cell-based, Candida albicans; settings: for uptake rate of KLG-[3H]L in the presence of the competitor: SC-Ura with ammonium sulfate; for competition with the uptake of KLG-[3H]L: 10-fold molar excess of competitor, FIG. 7
Protocol: To more rigorously determine the size constraints of the oligopeptide transporter, the accumulation of KLG-[^3H]L SEQ ID NO:7 was measured in the presence of 10-fold molar excess of the competitors L, KL, KLG, KLLG SEQ ID NO:6, and KLLLG SEQ ID NO:8. […] Uptake rates were calculated from a bestfit of the slope for each set of data. The uptake rate of KLG-[^3H]L SEQ ID NO:7 in the presence of no competitor, L, or KL was […] of dry weight, respectively. When KLG was used as a competitor the uptake rate was 0.12 nmoles/min/mg of dry weight which was approximately 50% of the no-competitor rate. The uptake rate approximated zero when KLLG SEQ ID NO:6 and KLLLG SEQ ID NO:8 were used as competitors.
Uptake of KLG-[^3H]L SEQ ID NO:7 was determined using a protocol for uptake of dipeptides as described by Basrai et al. (1995) with a few modifications. S. cerevisiae cultures were grown overnight to exponential phase in SC-Ura medium. Cells were harvested by centrifugation, and resuspended in 2% glucose at a cell density of 2×10^8 cells/ml. Two hundred and fifty microliters of cell suspension were added to an equal volume of an uptake assay reaction mixture and incubated at 30iC. The final concentrations of the components in the uptake assay solution were: glucose (2%, w/v), 10 mM sodium citrate/potassium phosphate buffer (pH 5.0), and KLG-[^3H]L SEQ ID NO:7 (150 μM; 8.5 mCi/mmol). Competition experiments were done in the presence of either 1.5 mM L, KL, KLG, KLLG SEQ ID NO:6, or KLLLG SEQ ID NO:8. At various time points, 90 μl portions were removed and filtered through a membrane. The yeast cells retained on the filter were washed twice with ice-cold distilled water, once with room temperature distilled water, and the residual radioactivity was measured by liquid scintillation. There was no peptide adsorption to the cell surface or sticking to filters since at 0i C the counts were at background level. The uptake results, calculated on the basis of 50% counting efficiency (determined using L-[^3H]lysine as a standard, and the specific activity of the peptide), were expressed as nmol of peptide uptake per minute per mg cell dry weight.

[4] = system: S. cerevisiae PB1X-9B(pRS202); assay: Growth assay, peptides as sole source of leucine, PB1X-9B(pRS202); format: cell-based, Saccharomyces cerevisiae; settings: medium with 0.1% proline as nitrogen source; 100 μM peptide
Protocol: (§3) To determine the size constraints of peptide utilization mediated by pOPT1, the ability of S. cerevisiae PB1X-9B (a mutant in the di-/tripeptide transporter) harboring either pRS202 (the parent vector) or pOPT1 (pRS202 containing the 3.8 kb insert with the OPT1 gene) to grow on KL, KLG, KLLG SEQ ID NO:6, and KLLLG SEQ ID NO:8 as a sole source of leucine was tested. Previously it has been shown that di-/tripeptide transport activity in C. albicans and S. cerevisiae is regulated by nitrogen; rich nitrogen sources such as ammnonium sulfate repress, while poor nitrogen sources such as proline derepress transport. Therefore simultaneous effect of nitrogen source on oligopeptide transport activity was determined by supplying either ammnonium sulfate or proline as the nitrogen source.
(§4) Peptide medium consisted of minimal medium supplemented with auxotrophic requirements minus the amino acid Seucine plus 100 μM of one of the following peptidest Lysyl-Leucine (KL), Lysyl-Leucyl-Glycine (KLG), Lysyl-Leucyl-Leucyl-Glycine (KLLG) SEQ ID NO:6, Lysyl-Leucyl-Glycyl-Leucine (KLGL) SEQ ID NO:7, or Lysyl-Leucyl-Leucyl-Leucyl-Glycine (KLLLG) SEQ ID NO:8. Abbreviations for toxic peptides and amino acids used herein are as follows: Ethionine (Eth), Alanyl-Ethionine (AEth), Leucyl-Ethionine (LEth), Lysysl-Leucyl-Ethionine (KLEth), Lysyl-Leucyl-Leucyl-Ethionine (KLLEth) SEQ ID NO:12, Lysysl-Leucyl-Alanyl-Ethionine (KLAEth) SEQ ID NO:14, and Lysyl-Leucyl-Leucyl-Leucyl-Ethionine (KLLLEth) SEQ ID NO:13. All amino acids were in the L configuration.
(§5) Growth assays to determine the phenotype of the cells were done as described by Island et al. (1991). Briefly, 3 μl of culture from a suspension of 5×10^6 cells/ml were spotted to the surface of the medium and plates were incubated at 30 iC for 4-7 days.

[5] = system: S. cerevisiae PB1X-9B(pOPT1); assay: Growth assay, peptides as sole source of leucine, PB1X-9B(pOPT1); format: cell-based, Saccharomyces cerevisiae; settings: 100 μM peptide; for utilization of peptide as a sole source of leucine (growth): medium with 0.1% proline as nitrogen source
Protocol: as §3, §4, §5

[6] = system: S. cerevisiae PB1X-9B(pRS202); assay: Peptide transport assay, accumulation of KLG-[3H]L, PB1X-9B(pRS202); format: cell-based, Saccharomyces cerevisiae; settings: cells grown in SC-Ura with 0.1% proline
Protocol: To determine if S. cerevisiae transformants harboring pOPT1 could accumulate a radiolabeled tetrapeptide, uptake assays were performed with the radiolabeled substrate KLG-[^3H]L SEQ ID NO:7 with cells grown to log phase in SC-Ura with either ammonium sulfate or 0.1% proline as a nitrogen source. […] This higher initial rate can be explained by overexpression due to high copy number or alternatively by the lack of requisite regulatory elements which may be absent in the heterologous host.
Uptake of KLG-[^3H]L SEQ ID NO:7 was determined using a protocol for uptake of dipeptides as described by Basrai et al. (1995) with a few modifications. S. cerevisiae cultures were grown overnight to exponential phase in SC-Ura medium. Cells were harvested by centrifugation, and resuspended in 2% glucose at a cell density of 2×10^8 cells/ml. […] The yeast cells retained on the filter were washed twice with ice-cold distilled water, once with room temperature distilled water, and the residual radioactivity was measured by liquid scintillation. […] The uptake results, calculated on the basis of 50% counting efficiency (determined using L-[^3H]lysine as a standard, and the specific activity of the peptide), were expressed as nmol of peptide uptake per minute per mg cell dry weight.

[7] = biological target: T1, Candida albicans oligopeptide …; assay: cell-based or functional assay
[8] = 10-fold molar excess (1.5 mM) of competitor

Row | Molecule | zone of growth inhibition / sensitivity [1] | zone of growth inhibition / sensitivity [2] | uptake rate of KLG-[3H]L in the presence of the competitor [3, 8] | competition with the uptake of KLG-[3H]L [3] | further results
1 | CCSCC[C@H](NC(=O)[C@H](C)N)C(=O)O [AEth, Alanyl-Ethionine] (H-Ala-[hCys](Et)-OH) | Neither strain exhibited sensitivity | Neither strain exhibited sensitivity | – | – | zone of growth inhibition [2]: no zone of growth inhibition
2 | CC(C)C[C@H](NC(=O)[C@@H](N)CCCCN)C(=O)O [KL, Lysyl-Leucine] (H-Lys-Leu-OH) | – | – | 0.26 nm/min/mg of dry weight | do not compete | utilization of peptide as a sole source of leucine (growth) [4]: No growth; utilization of peptide as a sole source of leucine (growth) [5]: No growth
3 | CC(C)C[C@H](NC(=O)[C@@H](N)CCCCN)C(=O)NCC(=O)O [KLG, Lysyl-Leucyl-Glycine] (H-Lys-Leu-Gly-OH) | – | – | 0.12 nmoles/min/mg of dry weight | decreased competition | uptake rate with competitor as percent of the no-competitor rate [3, 8]: approximately 50%; utilization of peptide as a sole source of leucine (growth) [4]: No growth; utilization of peptide as a sole source of leucine (growth) [5]: No growth
4 | CC(C)C[C@H](NC(=O)CNC(=O)[C@H](CC(C)C)NC(=O)[C@@H](N)CCCCN)C(=O)O [KLGL, Lysyl-Leucyl-Glycyl-Leucine] (H-KLGL-OH) | – | – | – | – | accumulation of tetrapeptide [6]: did accumulate
5 | CCSCC[C@H](NC(=O)[C@H](CC(C)C)NC(=O)[C@H](CC(C)C)NC(=O)[C@@H](N)CCCCN)C(=O)O [KLLEth, Lysyl-Leucyl-Leucyl-Ethionine] (H-KLL[hCys](Et)-OH) | not for PB1X-9B(pRS202) | zone of complete growth inhibition | – | – | zone of growth inhibition [1]: not PB1X-9B(pRS202)
6 | CC(C)C[C@H](NC(=O)[C@H](CC(C)C)NC(=O)[C@@H](N)CCCCN)C(=O)NCC(=O)O [KLLG, Lysyl-Leucyl-Leucyl-Glycine] (H-KLLG-OH) | – | – | zero | competition was seen | utilization of peptide as a sole source of leucine (growth) [4]: not able to utilize; utilization of peptide as a sole source of leucine (growth) [5]: able to utilize; utilization of peptide as a source of leucine (growth) ([5]; medium with ammonium sulfate as nitrogen source): able to utilize
7 | CC(C)C[C@H](N)C(=O)O [L, leucine] | – | – | 0.25 nm/min/mg of dry weight | do not compete | –
8 | CCSCC[C@H](NC(=O)[C@@H](N)CC(C)C)C(=O)O [LEth, Leucyl-Ethionine] (H-Leu-[hCys](Et)-OH) | – | – | – | – | zone of growth inhibition [2]: no zone of growth inhibition
9 | KLLAEth: ethionine-containing toxic pentapeptide, SEQ ID NO:15 (KLLA[Eth]) | not for PB1X-9B(pRS202) | zone of complete growth inhibition | – | – | zone of growth inhibition [1]: not PB1X-9B(pRS202)
10 | KLLLG [KLLLG, Lysyl-Leucyl-Leucyl-Leucyl-Glycine] | – | – | zero | competition was seen | utilization of peptide as a sole source of leucine (growth) [4]: No growth; utilization of peptide as a sole source of leucine (growth) [5]: No growth
11 | Lysysl-Leucyl-Alanyl-Ethionine (KLA[Ethionine]) [KLAEth] | not for PB1X-9B(pRS202) | zone of complete growth inhibition | – | – | zone of growth inhibition [1]: not PB1X-9B(pRS202)
12 | Lysysl-Leucyl-Ethionine [KLEth] | Neither strain exhibited sensitivity | Neither strain exhibited sensitivity | – | – | zone of growth inhibition [2]: no zone of growth inhibition
13 | KLG [Lysyl-Leucyl-Glycine] | – | – | – | – | uptake rate of KLG-[3H]L in the presence of a 10-fold molar excess of the competitor [7]: 0.12 nmoles/min/mg of dry weight
14 | KL [Lysyl-Leucine] | – | – | – | – | uptake rate of KLG-[3H]L in the presence of a 10-fold molar excess of the competitor [7]: 0.26 nm/min/mg of dry weight
